Data taken from ChEMBL document CHEMBL1221410, “Antioxidant flavone glycosides from the leaves of Fargesia robusta” (J Nat Prod, 2010).

Key:
[1] = Antioxidant activity against AAPH-induced lipid peroxidation assessed as trolox equivalent of peroxy radical scavenging activity after 10 mins by ORAC assay; assay type: functional
[2] = Antioxidant activity assessed as trolox equivalent of ABTS radical scavenging activity after 12 to 16 hrs by spectrophotometry; assay type: functional

Row | SMILES | Activity [1] | Activity [2]
1 | O=c1c(O)c(-c2ccc(O)c(O)c2)oc2cc(O)cc(O)c12 | 8.7 | 3.99
2 | O=c1cc(-c2ccc(O)c(O)c2)oc2cc(O)c([C@@H]3O[C@H](CO)[C@@H](O)[C@H](O)[C@H]3O)c(O)c12 | 66.5 | 1.56
3 | COc1cc(-c2cc(=O)c3c(O[C@@H]4O[C@H](CO)[C@@H](O)[C@H](O)[C@H]4O)cc(O)cc3o2)cc(OC)c1O | 18.2 | 0.063
4 | C[C@H]1O[C@@H](c2c(O)cc3oc(-c4ccc(O[C@@H]5O[C@H](CO)[C@@H](O)[C@H](O)[C@H]5O)c(O)c4)cc(=O)c3c2O)C[C@H](O)[C@H]1O | 8.3 | 0.075
5 | C[C@H]1O[C@@H](c2c(O[C@@H]3O[C@H](CO)[C@@H](O)[C@H](O)[C@H]3O)cc3oc(-c4ccc(O)c(O)c4)cc(=O)c3c2O)C[C@H](O)[C@H]1O | 26.8 | 0.332
6 | C[C@@H]1O[C@@H](O[C@@H]2C(=O)[C@H](O)[C@@H](C)O[C@H]2c2c(O)cc3oc(-c4ccc(O)c(O)c4)cc(=O)c3c2O)[C@H](O)[C@H](O)[C@H]1O | 5.7 | 0.646
